The values below come from patent US9120745B2, “Triazole compounds that modualte HSP90 activity” (Synta Pharmaceuticals Corp., priority 2007, dated 2015).

In data set [1] the test system is Her2. Description: Degradation of Her2 in BT-474 cells after treatment with compound (Western blot, Method 1). The data set is classed as cell-based, human. To be noted: for IC50: treated overnight in DMEM. On the procedure:
Human high-Her2 breast carcinoma BT474 (HTB-20), SK-BR-3 (HTB-30) and MCF-7 breast carcinoma (HTB-22) from American Type Culture Collection, VA, USA were grown in Dulbecco's modified Eagle's medium with 4 mM L-glutamine and antibiotics (100 IU/ml penicillin and 100 ug/ml streptomycine; GibcoBRL). To obtain exponential cell growth, cells were trypsinized, counted and seeded at a cell density of 0.5×10^6 cells/ml regularly, every 3 days. All experiments were performed on day 1 after cell passage.
BT-474 cells were treated with 0.5 μM, 2 μM, or 5 μM of 17AAG (a positive control) or 0.5 μM, 2 μM, or 5 μM of a compound of the invention overnight in DMEM medium. After treatment, each cytoplasmic sample was prepared from 1×10^6 cells by incubation of cell lysis buffer (#9803, cell Signaling Technology) on ice for 10 minutes. The resulting supernatant used as the cytosol fractions are dissolved with sample buffer for SDS-PAGE and run on a SDS-PAGE gel, blotted onto a nitrocellulose membrane by using semi-dry transfer. Non-specific binding to nitrocellulose was blocked with 5% skim milk in TBS with 0.5% Tween at room temperature for 1 hour, then probed with anti-Her2/ErB2 mAb (rabbit IgG, #2242, Cell Signaling) and anti-Tubulin (T9026, Sigma) as housekeeping control protein. HRP-conjugated goat anti-rabbit IgG (H+L) and HRP-conjugated horse anti-mouse IgG (H+L) were used as secondary Ab (#7074, #7076, Cell Signaling) and LumiGLO reagent, 20× Peroxide (#7003, Cell Signaling) was used for visualization.

In data set [2] the test system is human multiple myeloma tumor cell line RPMI 8226. Description: SCID mouse xenograft model, human multiple myeloma tumor cell line RPMI 8226. The data set is classed as in vivo. To be noted: RPMI 8226 xenograft in SCID mice. How it is done: (§1) The human multiple myeloma cell line, RPMI 8226 (ATCC #CCL-155), and the canine osteosarcoma cell line, D-17 (ATCC #CCL-183), were obtained from the American Type Culture Collection (ATCC; Manassas, Va., USA). The cells were cultured in growth media prepared with RPMI Media 1640 (4.5 g/L glucose), 10% fetal bovine serum (FBS), 10 mM HEPES, 1% 100× Penicillin-Streptomycin, 1% 100× sodium pyruvate and 1% 100×MEM non-essential amino acids. FBS was obtained from ATCC and all other reagents were obtained from Invitrogen Corp. (Carlsbad, Calif., USA). Cells that had been cryopreserved in liquid nitrogen were rapidly thawed at 37° C. and transferred to a tissue culture flask containing growth media and then incubated at 37° C. in a 5% CO2 incubator. To expand the RPMI 8226 cell line, growth media was changed every 2-3 days and cultures were passaged 1:3 to 1:5 every 3-5 days. When the a 175 cm^2 flask reached approximately 20-40×10(6) total cells, the above passaging process was repeated until sufficient cells had been obtained for implantation into mice. […] The supernatant was aspirated and the cell pellet was resuspended in 10 mL of growth media and the cell number determined using a hemocytometer. […]
(§2) Tumors were then permitted to develop in vivo until the majority reached 75-250 mm^3 in tumor volume, which required ˜4 weeks following implantation for the RPMI 8226 model and ˜9 weeks for the D-17 model. […] Tumor volumes (V) were calculated by caliper measurement of the width (W), length (L) and thickness (T) of tumors using the following formula: V=0.5236×(L×W×T). Animals were randomized into treatment groups so that the average tumor volumes of each group were similar at the start of dosing. % T/C values, as a measure of efficacy, were determined as follows: • (i) If ΔT>0: % T/C=(ΔT/ΔC)×100 • (ii) If ΔT<0: % T/C=(ΔT/T0)×100 • (iii) ΔT=Change in average tumor volume between start of dosing and the end of study. • (iv) ΔC=Change in average tumor volume between start of dosing and the end of study. • (v) T0=Average tumor volume at start of dosing. […]

Data set [3] deals with canine osteosarcoma tumor cell line D17. Put plainly: SCID mouse xenograft model, canine osteosarcoma tumor cell line D17. The data set is classed as in vivo. To be noted: D17 xenograft in SCID mice. How it is done:
as §1, §2

Broadly, the IC50 is the midpoint of a concentration-inhibition curve. Take `CC(C)c1cc(-c2nnc(O)n2-c2ccc3c(ccn3C)c2)c(O)cc1OP(=O)(O)O` [Compound 3, 5-hydroxy-4-(5-hydroxy-4-(1-methyl-1H-indol-5-yl)-4H-1,2,4-triazol-3-yl)-2-isopropylphenyl dihydrogen phosphate]: in data set [1], the IC50 came out at 88 nM. The overt toxicity entry in data set [2] (100 mg/kg) and in data set [3] (61 mg/kg) was “Overt toxicity was not observed” each time. The “% T/C value” in data set [2] (100 mg/kg body weight i.v., day 46) is given as 15%; in data set [3] (61 mg/kg body weight i.v., day 83) it was 6%. Also, the “average bodyweight change relative to the start of the study” value in data set [2] (100 mg/kg, day 46) is on record as 2.1%; in data set [3] (61 mg/kg, day 83), −0.2%.

Regarding `C=CCNC1=C2C[C@@H](C)C[C@H](OC)[C@H](O)[C@@H](C)/C=C(\C)[C@H](OC(N)=O)[C@@H](OC)/C=C\C=C(/C)C(=O)NC(=CC1=O)C2=O` [Compound 17AAG, 17-allylamino-17-demethoxygeldanamycin, reference compound], the “degradation of Her2” value in data set [1] (0.5 μM, positive control, results not shown) is “partial degradation”.

For `CC(C)c1cc(-c2nnc(O)n2-c2ccc(N3CCOCC3)nc2)c(O)cc1OP(=O)(O)O` [Compound 2, 5-hydroxy-4-(5-hydroxy-4-(6-morpholinopyridin-3-yl)-4H-1,2,4-triazol-3-yl)-2-isopropylphenyl dihydrogen phosphate], in data set [1], the 50% inhibitory concentration (IC50) turned out to be 90 nM.

For the compound `CC(C)c1cc(-c2nnc(O)n2-c2ccc3c(ccn3C)c2)c(O)cc1OP(=O)(O)O` [Compound 4, sodium 5-hydroxy-4-(5-hydroxy-4-(1-methyl-1H-indol-5-yl)-4H-1,2,4-triazol-3-yl)-2-isopropylphenyl phosphate], in data set [1] (phosphate), the IC50 is 182 nM.

For `CC(C)c1cc(-c2nnc(O)n2-c2ccc3c(c2)CCC3)c(O)cc1OP(=O)(O)O` [Compound 1, 4-(4-(2,3-dihydro-1H-inden-5-yl)-5-hydroxy-4H-1,2,4-triazol-3-yl)-5-hydroxy-2-isopropylphenyl dihydrogen phosphate], the concentration for half-maximal inhibition (IC50) in data set [1] was 228 nM.
